Laboratory results: US7323496B2, “Compounds for treatment of inflammation, diabetes and related disorders” (Theracos, Inc., priority 1999, dated 2008)

Columns and labels:
IL-6 = assay: Inhibition of LPS-induced IL-6 production in RAW264.7 cells (ELISA); type: cell-based, mouse; conditions: RAW264.7, 10, 30 or 100 μM, LPS 0.1 μg/ml 6 hours; greater than dexamethasone 1 μM, FIG. 7
3T3-L1 adipocytes [1] = assay: Insulin-stimulated glucose uptake in 3T3-L1 adipocytes; type: cell-based, mouse; conditions: 5 μM, 48 hours, different concentrations of insulin, versus vehicle, FIG. 2
IL-1 beta = assay: Inhibition of LPS-induced IL-1 beta production in RAW264.7 cells (ELISA); type: cell-based, mouse; conditions: RAW264.7, 10, 30 or 100 μM, LPS 0.1 μg/ml 6 hours; same approximate magnitude as dexamethasone 1 μM, FIG. 6
ob/ob mice [2] = assay: Glucose-lowering effect in ob/ob mice; type: in vivo, mouse; conditions: 10 mg/kg daily oral, p<0.05
ob/ob mice [3] = assay: Lipid-lowering effects in ob/ob mice; type: in vivo, mouse; conditions: 10 mg/kg daily oral, day 8, versus vehicle, p<0.05
3T3-L1 adipocytes [4] = assay: Glucose uptake in 3T3-L1 differentiated adipocytes (14C-deoxyglucose); type: cell-based, mouse; conditions: 48 hours with different concentrations, percentage of basal level, FIG. 1
COX-1 = COX-1 production in LPS-stimulated RAW264.7 cells (Western blot); type: cell-based, mouse; conditions: LPS-stimulated RAW264.7, 10, 30 or 100 μM, FIG. 8
TNF-alpha [5] = assay: Inhibition of LPS-induced TNF-alpha production in RAW264.7 cells (ELISA); type: cell-based, mouse; conditions: RAW264.7, 10, 30 or 100 μM, LPS 0.1 μg/ml 6 hours; effect approached dexamethasone 1 μM, FIG. 5
iNOS = assay: Inhibition of LPS-induced iNOS production in RAW264.7 cells (Western blot); type: cell-based, mouse; conditions: RAW264.7, 10, 30 or 100 μM, FIG. 8
COX-2 = assay: Inhibition of LPS-induced COX-2 production in RAW264.7 cells (Western blot); type: cell-based, mouse; conditions: LPS-stimulated RAW264.7, 10, 30 or 100 μM, FIG. 8
3T3-L1 adipocytes [6] = assay: Stimulation of glucose uptake in differentiated 3T3-L1 adipocytes with 100 nM insulin; type: cell-based; conditions: Mus musculus, 48 h, vehicle set at 100%, read-out: Percent Stimulation of Glucose Uptake
PDE4 = assay: Inhibition of PDE4 enzyme activity; type: biochemical, human; conditions: for Percent Inhibition of Enzyme Activity, PDE4: PDE4 from human U-937 cells, 1 μM cAMP
p44/42 MAP kinase = assay: Inhibition of LPS-induced phosphorylation of p44/42 MAP kinase in RAW 264.7 gamma NO(-) cells (Western blot); type: cell-based, mouse; conditions: data not shown
PDE3 = target: T1, PDE3 (Homo sapiens, UniProt Q14432); assay: Inhibition of PDE3 enzyme activity; type: biochemical; conditions: PDE3 from human platelets
T1 construct: PDE3 partially purified from human platelets were used; from tissue; host or cells: human platelets
T1 sequence (Q14432 whole entry): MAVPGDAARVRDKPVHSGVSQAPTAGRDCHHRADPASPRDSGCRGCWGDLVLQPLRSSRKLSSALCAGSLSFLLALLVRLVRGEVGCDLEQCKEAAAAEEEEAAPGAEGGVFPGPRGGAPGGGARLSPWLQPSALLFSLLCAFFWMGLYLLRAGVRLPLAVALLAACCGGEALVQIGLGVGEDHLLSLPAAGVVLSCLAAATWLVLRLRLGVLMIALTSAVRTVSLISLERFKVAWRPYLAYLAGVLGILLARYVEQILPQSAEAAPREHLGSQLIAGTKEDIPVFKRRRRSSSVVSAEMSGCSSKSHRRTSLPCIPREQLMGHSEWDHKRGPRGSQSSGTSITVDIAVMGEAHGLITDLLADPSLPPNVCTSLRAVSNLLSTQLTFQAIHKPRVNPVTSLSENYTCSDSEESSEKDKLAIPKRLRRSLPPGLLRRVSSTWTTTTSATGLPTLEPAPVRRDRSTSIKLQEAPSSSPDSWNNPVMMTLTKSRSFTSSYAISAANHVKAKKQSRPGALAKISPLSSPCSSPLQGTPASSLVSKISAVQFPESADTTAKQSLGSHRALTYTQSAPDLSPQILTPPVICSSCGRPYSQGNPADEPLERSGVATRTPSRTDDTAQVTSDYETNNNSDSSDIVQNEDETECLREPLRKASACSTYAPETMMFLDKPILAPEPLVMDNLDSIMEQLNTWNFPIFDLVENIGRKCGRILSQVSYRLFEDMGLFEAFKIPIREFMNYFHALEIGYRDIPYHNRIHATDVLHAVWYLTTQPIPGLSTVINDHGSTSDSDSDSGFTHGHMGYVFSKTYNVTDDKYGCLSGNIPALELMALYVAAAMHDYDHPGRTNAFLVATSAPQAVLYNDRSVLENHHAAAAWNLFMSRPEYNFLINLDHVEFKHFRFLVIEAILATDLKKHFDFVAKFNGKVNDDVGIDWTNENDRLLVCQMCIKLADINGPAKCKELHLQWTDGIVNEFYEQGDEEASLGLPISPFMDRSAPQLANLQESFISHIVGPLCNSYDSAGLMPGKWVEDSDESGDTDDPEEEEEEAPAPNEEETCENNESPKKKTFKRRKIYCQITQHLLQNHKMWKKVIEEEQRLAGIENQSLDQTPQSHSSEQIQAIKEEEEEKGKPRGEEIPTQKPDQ

DBA/1J mice = assay: Collagen-induced arthritis in mice; type: in vivo, mouse; conditions: for arthritis clinical score (severity) compared with vehicle controls: FIG. 9
TNF-alpha [7] = assay: Inhibition of LPS-induced TNF-alpha production in mice (plasma ELISA); type: in vivo, mouse; conditions: summary in words of Table 6, 50 or 100 mg/kg oral
[8] = test system: human elutriated monocytes; assay: Cell viability of human monocytes (MTS/PMS assay); type: cell-based; conditions: 30 μM
[9] = low dose 40 mg/kg oral twice daily for 14 days

SMILES | activity at 0.1 µM (3T3-L1 adipocytes [6]) | activity at 1 µM (3T3-L1 adipocytes [6]) | activity at 10 µM (3T3-L1 adipocytes [6]) | also measured
COC(=O)C(=Cc1cc(OC)cc(OC)c1)c1ccc(Oc2ccc(CCC(=O)NC(N)=O)cc2)cc1 [Compound 1, 3-(3,5-dimethoxyphenyl)-2-{4-[4-(3-oxo-3-ureidopropyl)-phenoxy]-phenyl}-acrylyc acid methyl ester] | – | – | – | inhibition of LPS-induced production of IL-6 (IL-6): significantly inhibited; stimulation of glucose uptake by insulin (3T3-L1 adipocytes [1]): enhanced; inhibition of LPS-induced production of IL-1 beta (IL-1 beta): significantly inhibited; decrease in blood glucose levels (ob/ob mice [2]; day 6, versus vehicle): 36%; decrease in blood glucose levels (ob/ob mice [2]; day 8, versus vehicle): 23%; decrease in free fatty acids (ob/ob mice [3]): 19%; decrease in serum triglycerides (ob/ob mice [3]): 49%; glucose uptake (3T3-L1 adipocytes [4]): dose-dependent increase; inhibition of production of COX-1 (COX-1): but not COX-1; inhibition of LPS-induced production of TNF-alpha (TNF-alpha [5]): significantly inhibited; inhibition of LPS-induced iNOS production (iNOS): dose-dependent inhibition; inhibition of production of COX-2 (COX-2): selectively inhibited
CCOC(=O)NC(=O)CCc1ccc(Oc2ccc(/C(=C\c3cc(OC)cc(OC)c3)C(=O)OC)cc2)cc1 [Compound 8, 3-(3,5-dimethoxyphenyl)-2-{4-[4-(3-ethoxycarbonylamino-3-oxo-propyl)-phenoxy]-phenyl}-acrylic acid methyl ester] | 115% | 132% | 171% | –
COc1cc(/C=C(/C(=O)N(C)C)c2ccc(Oc3ccc(CCC(=O)NC(N)=O)cc3)cc2)cc(OC)c1 [Compound 13, 3-(3,5-dimethoxyphenyl)-N,N-dimethyl-2-{4-[4-(3-oxo-3-ureido-propyl)-phenoxy]-phenyl}-acrylamide] | – | – | – | Percent Inhibition of Enzyme Activity, PDE4 (PDE4; 1 μM): 85%; Percent Inhibition of Enzyme Activity, PDE4 (PDE4; 10 μM): 98%; Percent Inhibition of Enzyme Activity, PDE4 (PDE4; 30 μM): 102%; IC50 (PDE4; PDE4 from human U-937 promonocytic cells): < 1000 nM; inhibition of LPS/IFN-gamma induced phosphorylation of p44/42 (p44/42 MAP kinase; 30 μM and 10 μM, LPS 10 ng/ml / IFN-gamma 10 U/ml 15 min): dose-dependent manner; inhibition of LPS-induced phosphorylation of p44/42 MAP kinase (p44/42 MAP kinase; 30 μM, LPS 10 ng/ml 15 min): inhibited; IC50 (PDE3): 13.6 µM
COC(=O)NCc1ccc(Oc2ccc(/C(=C\c3cc(OC)cc(OC)c3)C(=O)N(C)C)cc2)cc1 [Compound 29, (4-{4-[2-(3,5-dimethoxyphenyl)-1-dimethylcarbamoyl-vinyl]-phenoxy}-benzyl)-carbamic acid methyl ester] | 106% | 124% | 120% | –
COc1cc(/C=C(/C(=O)N(C)C)c2ccc(Oc3ccc(CCC(N)=O)cc3)cc2)cc(OC)c1 [Compound 31, 2-{4-[4-(2-Carbamoylethyl)-phenoxy]-phenyl}-3-(3,5-dimethoxyphenyl)-N,N-dimethylacrylamide] | 107% | 119% | 161% | hind limb histology (DBA/1J mice; high dose 100 mg/kg oral twice daily for 14 days): reduction in incidence and severity of pannus formation, inflammation cell infiltration and bone/cartilage damage; arthritis clinical score (severity) compared with vehicle controls (DBA/1J mice; high dose 100 mg/kg oral twice daily for 14 days, about same extent as dexamethasone): prevented the increase in severity; hind limb histology (DBA/1J mice; [9]): marked chronic inflammation of synovium with pannus formation and destruction of bone and cartilage; arthritis clinical score (severity) compared with vehicle controls (DBA/1J mice; [9]): no apparent effect; inhibition of LPS-induced TNF-alpha production in mice (TNF-alpha [7]): significantly inhibited
COc1cc(/C=C(/C(=O)N(C)C)c2ccc(Oc3ccc(CCC(=O)N4CCOCC4)cc3)cc2)cc(OC)c1 [Compound 40, 3-(3,5-Dimethoxyphenyl)-N,N-dimethyl-2-{4-[4-(3-morpholin-4-yl-3-oxopropyl)-phenoxy]phenyl}-acrylamide] | 126% | 117% | 126% | –
COc1cc(/C=C(/C(=O)N2CCCCC2)c2ccc(Oc3ccc(CCC(=O)NC(N)=O)cc3)cc2)cc(OC)c1 [Compound 51, [3-(4-{4-[2-(3,5-dimethoxyphenyl)-1-(piperidine-1-carbonyl)-vinyl]-phenoxy}-phenyl)-propionyl]-urea] | 93% | 107% | 136% | Cell viability [8]: * (Cell viability <70%)
CC(=O)NC(=O)CCc1ccc(Oc2ccc(/C(=C\c3ccc(F)cc3)C(=O)N(C)C)cc2)cc1 [Compound 56, 2-{4-[4-(3-acetylamino-3-oxopropyl)-phenoxy]-phenyl}-3-(4-fluorophenyl)-N,N-dimethylacrylamide] | 83% | 100% | 126% | –
COc1cc(/C=C(/C(=O)Nc2ccncc2)c2ccc(Oc3ccc(CCC(=O)NC(N)=O)cc3)cc2)cc(OC)c1 [Compound 60, 3-(3,5-dimethoxyphenyl)-2-{4-[4-(3-oxo-3-ureidopropyl)-phenoxy]-phenyl}-N-pyridin-4-ylacrylamide] | 93% | 120% | 229% | –
COc1cc(/C=C(/C(=O)Nc2ccc(Cl)cc2)c2ccc(Oc3ccc(CCC(=O)NC(N)=O)cc3)cc2)cc(OC)c1 [Compound 61, N-(4-chlorophenyl)-3-(3,5-dimethoxyphenyl)-2-{4-[4-(3-oxo-3-ureidopropyl)-phenoxy]-phenyl}-acrylamide] | 93% | 120% | 229% | –
COc1cc(/C=C(/C(=O)N(C)C)c2ccc(Oc3ccc(CCC(=O)NCC(=O)N4CCOCC4)cc3)cc2)cc(OC)c1 [Compound 63, 3-(3,5-Dimethoxyphenyl)-N,N-dimethyl-2-(4-{4-[2-(2-morpholin-4-yl-2-oxoethylcarbamoyl)-ethyl]-phenoxy}-phenyl)-acrylamide] | 107% | 112% | 139% | –
COc1cc(/C=C(/C(=O)N(C)C)c2ccc(Oc3ccc(CCC(=O)N4CCN(C)CC4)cc3)cc2)cc(OC)c1 [Compound 64, 3-(3,5-dimethoxyphenyl)-N,N-dimethyl-2-(4-{4-[3-(4-methylpiperazin-1-yl)-3-oxopropyl]-phenoxy}-phenyl)-acrylamide] | 108% | 113% | 127% | –
CN(C)C(=O)/C(=C/c1cccnc1)c1ccc(Oc2ccc(CCC(N)=O)cc2)cc1 [Compound 77, 2-{4-[4-(2-carbamoyl-ethyl)-phenoxy]-phenyl}-N,N-dimethyl-3-pyridin-3-yl-acrylamide] | – | – | – | inhibition of LPS-induced TNF-alpha production in mice (TNF-alpha [7]): significantly inhibited
